{
  "source": "patent US12364698B2",
  "about": "(Janssen Pharmaceutica NV, priority 2015, dated 2025)",
  "origin": "cited, not measured here",
  "settings": "at a pH of about 7",
  "data": [
    {"smiles": "C=CC(=O)N1CCC[C@@H](n2nc(-c3ccc(Oc4ccccc4)cc3)c3c(N)ncnc32)C1", "note": "[Ibrutinib, 1-[(3R)-3-[4-amino-3-(4-phenoxyphenyl)-1H-pyrazolo[3,4 d]pyrimidin-1-yl]-1-piperidinyl]-2-propen-1-one]", "values": [
      {"measurement": "partition coefficient", "value": "about 4"}
    ]}
  ]
}
